In patent US20160175214A1, “ANHYDROUS COSMETIC COMPOSITION FOR TOPICAL APPLICATION” (The Procter & Gamble Company, priority 2014, published 2016):

Assay: Solubility in hydrophobic anhydrous, glycol free, antiperspirant free stick formulations
Type: physicochemical
Excerpt: Additional considerations regarding exemplary Vitamin B5 derivatives may apply. For example, in order to deliver Vitamin B5 (or a derivative thereof) from an anhydrous, hydrophobic, glycol free and antiperspirant free cosmetic stick, a corresponding matrix soluble form or derivative of Vitamin B5 must be used to achieve the desired benefits of hair softening, shave bump reduction and wound healing from shave cut damage. For example, if an incompatible or insoluble form of Vitamin B5 is used, such as panthenol, this will not form a homogenous one phase solution when the ingredients are blended and heated together from the melt.
As such, the Vitamin B5 derivative utilized should be soluble in the anhydrous, hydrophobic, glycol free and antiperspirant free matrix.

## CCOCC(C)(C)C(O)C(=O)NCCCO (stereo not shown) [Panthenyl Ethyl Ether]
  Solublility in hydrophobic Anhydrous, glycol free, antiperspirant free Stick formulations: Soluble
